From US6316448A, “Pyrazolo[3,4-d][1,2,3] troazines having anticonvulsant activity and process for their preparation” (priority 1999, dated 2001)

What was measured:
[1] = Anticonvulsive action, s.c. pentetrazol (PTZ), mouse i.p.; type: in vivo
Text: (§1) ^3) Mouse i.p.: MES = maximal electroshock, PTZ = s.c. pentetrazol
(§2) ^5) in % of the protected animals

[2] = Anticonvulsive action, maximal electroshock (MES), mouse i.p.; type: in vivo
Text: as §1, §2

[3] = Octanol/water partition coefficient; type: physicochemical
Text: ^2) Octanol/water partition coefficient, n = not measured

in vivo = details: rat, po
Text: (§3) Analogous results were obtained for the oral action.

[4] = Maximal electroshock, rat p.o.; type: in vivo; details: po
Protocol: The compounds according to the invention were tested in vivo for their anticonvulsive action (Table 1) in mice (i.p. administration) or rats (p.o. administration) according to the internationally customary standard (Pharmac. Weekblad, Sc. Ed. 14, 132 (1992) and Antiepileptic Drugs, Third. Ed., Raven Press, New York 1989).
as §3

[5] = ip, mouse i.p., s.c. pentetrazol, read-out: Action, % of the protected animals (PTZ)
[6] = ip, mouse i.p., MES, 100 mg/kg, read-out: Action, % of the protected animals (MES)
[7] = ip, mouse i.p., s.c. pentetrazol, 100 mg/kg, read-out: Action, % of the protected animals (PTZ)
[8] = ip, mouse i.p., MES, read-out: Action, % of the protected animals (MES)

logP [3]	Compound	responders at 300 mg/kg [1, 5] [%]	responders at 100 mg/kg [2, 6] [%]	responders at 100 mg/kg [1, 7] [%]	other results
	Cc1c2c(=O)[nH]nnc2nn1Cc1ccccc1Cl [Compound 10, 6-(2-chlorobenzyl)-5-methyl-3,6dihydropyrazolo[3,4-d][1,2,3]triazin-4one]	0	66		
	NC(=O)N1c2ccccc2C=Cc2ccccc21 [Carbamazepine, reference compound]		100	0	
1.88	O=c1[nH]nnc2nn(Cc3ccc(Cl)cc3)cc12 [Compound 8, 6-(4-chlorobenzyl)-3,6-dihydropyrazolo[3,4-d][1,2,3]triazin-4-one]	100			responders at 300 mg/kg ([2]; ip, mouse i.p., MES, 300 mg/kg, read-out: Action, % of the protected animals (MES)): 100%
1.38	O=c1[nH]nnc2nn(Cc3c(F)cccc3Cl)cc12 [Compound 9, 6-(2-chloro-6-fluorobenzyl)-3,6-dihydropyrazolo[3,4-d][1,2,3]triazin-4one]			100	responders at 10 mg/kg ([2]; ip, mouse i.p., MES, 10 mg/kg, read-out: Action, % of the protected animals (MES)): 20%
	O=c1[nH]nnc2nn(Cc3ccccc3F)cc12 [Compound 1, 6-(2-fluorobenzyl)-3,6-dihydropyrazolo[3,4-d][1,2,3]triazin-4-one]			66	responders at 30 mg/kg [2, 8]: 100%
1.74	O=c1[nH]nnc2nn(Cc3ccccc3C(F)(F)F)cc12 [Compound 3, 6-(2-trifluoromethylbenzyl)-3,6-dihydropyrazolo[3,4-d][1,2,3]triazin-4-one]			100	responders at 30 mg/kg [2, 8]: 33%
1.83	O=c1[nH]nnc2nn(Cc3cccc(Cl)c3)cc12 [Compound 5, 6-(3-chlorobenzyl)-3,6-dihydropyrazolo[3,4-d][1,2,3]triazin-4-one]	0	100		
	6-(2-chloro-4-fluorobenzyl)-5-methyl-3,6-dihydropyrazolo[3,4-d][1,2,3]triazin-4-one [Compound 11]				Action, % of the protected animals (PTZ) ([1]; mouse i.p., s.c. pentetrazol, 100 mg/kg): 33%; Action, % of the protected animals (MES) ([2]; mouse i.p., MES, 100 mg/kg): 66%
	CCCC(CCC)C(=O)O [Valproate, reference compound]				responders at 100 mg/kg ([1]; Mus musculus, ip, read-out: Action, % of the protected animals (PTZ)): 30%; responders at 100 mg/kg ([2]; Mus musculus, ip, read-out: Action, % of the protected animals (MES)): 0%
0.74	Cc1ccccc1Cn1cc2c(=O)[nH]nnc2n1 [Compound 4, 6-(2-methylbenzyl)-3,6-dihydropyrazolo[3,4-d][1,2,3]triazin-4-one]	100			responders at 30 mg/kg [2, 8]: 100%
	O=c1[nH]nnc2nn(Cc3ccccc3)cc12 [Compound 12, 6-benzyl-3,6-dihydropyrazolo[3,4-d][1,2,3]triazin-4-one]		66	0	
2.02	O=c1[nH]nnc2nn(Cc3cccc(C(F)(F)F)c3)cc12 [Compound 6, 6-(3-trifluoromethylbenzyl)-3,6-dihydropyrazolo[3,4-d][1,2,3]triazin-4-one]		66	20	
1.28	O=c1[nH]nnc2nn(Cc3ccc(F)cc3)cc12 [Compound 7, 6-(4-fluorobenzyl)-3,6-dihydropyrazolo[3,4-d][1,2,3]triazin-4-one]	100	66		

Compound	logP [3]	responders at 300 mg/kg [1, 5] [%]	responders at 100 mg/kg [2, 6] [%]	responders at 100 mg/kg [1, 7] [%]	other results
O=c1[nH]nnc2nn(Cc3ccccc3Cl)cc12 [Compound 2, 6-(2-chlorobenzyl)-3,6-dihydropyrazolo[3,4-d][1,2,3]triazin-4-one]	0.82				responders at 30 mg/kg ([1]; ip, mouse i.p., s.c. pentetrazol, 30 mg/kg, read-out: Action, % of the protected animals (PTZ)): 60%; responders at 30 mg/kg [2, 8]: 100%; TD50 (in vivo): > 250 mg/kg; ED50 [4]: 3 mg/kg
